Data on one compound can be found in article PMC12071365, “Discovery of Boronic Acids-Based β-Lactamase Inhibitors Through In Situ Click Chemistry” (International Journal of Molecular Sciences, 2025).

The test has as its target NDM-1 (Klebsiella pneumoniae, UniProt C7C422). To be noted: read-out: KM substrate, HEPES 20 mM pH 7.0 + 20 µM Zn. As to the method: The β-lactamases used in the present study were from a Clinical Biochemistry Laboratory collection (Department of Biotechnological and Applied Clinical Sciences, University of L’Aquila, L’Aquila, Italy). […] The concentration of each enzyme was determined by a Bradford assay.

Sequence of NDM-1 (C7C422 29-270, looked up, species assumed): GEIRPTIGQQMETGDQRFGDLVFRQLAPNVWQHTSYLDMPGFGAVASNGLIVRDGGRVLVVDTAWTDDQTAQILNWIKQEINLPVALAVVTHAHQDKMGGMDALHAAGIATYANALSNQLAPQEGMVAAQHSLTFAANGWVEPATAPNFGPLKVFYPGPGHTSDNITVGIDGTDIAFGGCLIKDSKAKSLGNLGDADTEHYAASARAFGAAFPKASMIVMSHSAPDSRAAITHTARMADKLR

In the case of `C[C@@H](O)[C@H]1C(=O)N2C(C(=O)O)=C(S[C@@H]3CN[C@H](C(=O)N(C)C)C3)[C@H](C)[C@H]12` [MPM, Meropenem], the Km amounted to 80 ± 1 µM.

Usually Km stands for the concentration of substrate that gives half-maximal velocity.
